# In article PMC9738062, “Selectively Halogenated Flavonolignans—Preparation and Antibacterial Activity” (International Journal of Molecular Sciences, 2022):
# Key:
# DPPH radical scavenging = settings: 1,1-diphenyl-2-picrylhydrazyl radical scavenging
# Summary of the method: (§1)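 ABTS and DPPH radical scavenging gauged antiradical activity. Reducing capacity was measured as reduction of Folin–Ciocalteu reagent and of ferric ions (FRAP).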
# [1] = Ferric reducing antioxidant power (FRAP); settings: Fe2+ equivalents
# Summary of the method: as §1
# [2] = Folin-Ciocalteu reagent reduction; settings: gallic acid equivalents
# Summary of the method: as §1
# [3] = system: lipopolysaccharide-stimulated macrophages (RAW 264.7); assay: Inhibition of nitric oxide production (Griess reagent); format: cell-based, murine; settings: Mus musculus, RAW264.7; LPS 100 ng/mL, 24 h; highest tested concentration 100 µM; read-out: NO Production IC50
# Summary of the method: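 RAW 264.7 macrophages seeded at 1 × 10^6 cells/mL and stimulated with bacterial lipopolysaccharide. After 24 h, medium was mixed 1:1 with Griess reagent (0.04 g/mL) and absorbance read at 540 nm after 15 min. Viability by resazurin.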
# [4] = system: Vibrio campbellii BAA 1118 (AI-1); assay: Viability of the quorum-sensing reporter culture (resazurin assay), AI-1 strain; format: cell-based; settings: BAA1118, V. campbellii BAA 1118, resazurin assay, read-out: IC50 (concentration that halved the viability)
# Summary of the method: (§2)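 Mutant V. campbellii strains responding only to AI-1 (BAA-1118) or AI-2 (BAA-1119), seeded at 5 × 10^5 CFU/mL in Autoinducer Bioassay medium (potassium phosphate pH 7.0); compounds at final 0.2–200 µM.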
# [5] = system: multidrug-resistant P. aeruginosa; assay: Sensitization of antibiotic-resistant bacteria (compound plus breakpoint antibiotic concentration); format: cell-based, Pseudomonas aeruginosa; settings: for Effect on viability in combination with colistin: colistin 2 mg/L; for Effect on viability in combination with colistin / Effect on viability in combination with imipenem: flavonoid 40 µM, 24 h; for Effect on viability in combination with imipenem: imipenem 4 mg/L
# Summary of the method: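 A multidrug-resistant clinical isolate of P. aeruginosa, obtained from the General University Hospital in Prague and resistant to colistin and imipenem among other drugs, was grown in Mueller–Hinton broth. Flavonoid derivatives at up to 40 µM were combined with EUCAST breakpoint antibiotic concentrations. MIC was determined per ISO 20776-1: 2020, with viability read as A590 nm after 24 h at 37 °C, 150 rpm.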
# [6] = system: Vibrio campbellii BAA 1119 (AI-2); assay: microbe, parasite or virus in culture; format: cell-based; settings: for EC50: Vibrio campbellii, BAA1119, 16 h, read-out: EC50 (concentration that halved the communication); for SI (selectivity index): ratio IC50 (viability) / EC50 (communication), BAA 1119
# Summary of the method: as §2
# [7] = system: Vibrio campbellii BAA 1118 (AI-1); assay: microbe, parasite or virus in culture; format: cell-based; settings: for EC50: Vibrio campbellii, BAA1118, 16 h, read-out: EC50 (concentration that halved the communication); for SI (selectivity index): ratio IC50 (viability) / EC50 (communication), BAA 1118
# Summary of the method: as §2
# [8] = system: Vibrio campbellii BAA 1119 (AI-2); assay: Viability of the quorum-sensing reporter culture (resazurin assay), AI-2 strain; format: cell-based; settings: BAA1119, V. campbellii BAA 1119, resazurin assay, read-out: IC50 (concentration that halved the viability)
# Summary of the method: as §2
# [9] = system: pooled male rat microsomal liver membranes; assay: Inhibition of lipid peroxidation induced by tert-butyl hydroperoxide; format: biochemical; settings: male rat microsomes, read-out: ILP IC50
# Description: The antiradical activity was evaluated by the ability to scavenge ABTS and DPPH radicals. Reducing capacity was assessed by the ability to reduce the Folin–Ciocalteu reagent (FCR) and ferric ions (FRAP). The ability to inhibit lipid peroxidation of pooled male rat microsomal liver membranes induced by tert-butyl hydroperoxide was also evaluated and the results were expressed as IC50 values.
# [10] = ABTS cation radical scavenging; settings: vitamin C equivalent antioxidant capacity
# Summary of the method: as §1
smiles,measurement,setting,value
"O=c1c(O)c(-c2ccc(O)c(O)c2)oc2c(Br)c(O)cc(O)c12 [compound 9, 8-bromoquercetin]",IC50,DPPH radical scavenging,2.44 µM
same,FRAP [Fe2+eq],[1],2.44 ± 0.06 Fe2+eq
same,FCR [GAE],[2],2.01 ± 0.06 GAE
same,IC50,[3],> 100 µM
same,IC50,[4],27.8 ± 0.5 µM
same,Effect on viability in combination with colistin,[5],-
same,Effect on viability in combination with imipenem,[5],-
same,EC50,[6],0.4 ± 0.02 µM
same,SI (selectivity index),[6],2.9 ± 0.3
same,EC50,[7],25.6 ± 0.5 µM
same,SI (selectivity index),[7],1.08 ± 0.04
same,IC50,[8],1.1 ± 0.1 µM
same,IC50,[9],38.3 ± 1.9 µM
same,ABTS [CEAC],[10],2.92 ± 0.28 CEAC
"O=c1c(O)c(-c2ccc(O)c(O)c2)oc2c(Br)c(O)c(Br)c(O)c12 [compound 10, 6,8-dibromoquercetin]",IC50,DPPH radical scavenging,3.59 µM
same,FRAP [Fe2+eq],[1],3.31 ± 0.14 Fe2+eq
same,FCR [GAE],[2],1.70 ± 0.02 GAE
same,IC50,[3],40.6 ± 2.6 µM
same,IC50,[4],13.8 ± 0.5 µM
same,Effect on viability in combination with colistin,[5],-
same,Effect on viability in combination with imipenem,[5],-
same,EC50,[6],0.7 ± 0.02 µM
same,SI (selectivity index),[6],5.0 ± 0.3
same,EC50,[7],7.3 ± 0.4 µM
same,SI (selectivity index),[7],1.9 ± 0.2
same,IC50,[8],3.5 ± 0.1 µM
same,IC50,[9],28.6 ± 1.1 µM
same,ABTS [CEAC],[10],2.63 ± 0.19 CEAC
"COc1cc([C@H]2Oc3cc([C@H]4Oc5cc(O)c(Br)c(O)c5C(=O)[C@@H]4O)ccc3O[C@@H]2CO)ccc1O [compound 11, 6-Bromosilybin A]",IC50,DPPH radical scavenging,472 µM
same,FRAP [Fe2+eq],[1],0.072 ± 0.002 Fe2+eq
same,FCR [GAE],[2],1.06 ± 0.04 GAE
same,IC50,[3],40 ± 3.4 µM
same,IC50,[4],51.7 ± 0.7 µM
same,Effect on viability in combination with colistin,[5],-
same,Effect on viability in combination with imipenem,[5],-
same,EC50,[6],9.4 ± 0.5 µM
same,SI (selectivity index),[6],5.5 ± 0.3
same,EC50,[7],24.4 ± 0.7 µM
same,SI (selectivity index),[7],2.1 ± 0.1
same,IC50,[8],51.5 ± 0.6 µM
same,IC50,[9],449 µM
same,ABTS [CEAC],[10],0.60 ± 0.04 CEAC
"COc1cc([C@H]2Oc3cc([C@H]4Oc5c(Br)c(O)c(Br)c(O)c5C(=O)[C@@H]4O)ccc3O[C@@H]2CO)ccc1O [compound 12, 6,8-dibromosilybin A]",IC50,DPPH radical scavenging,383 µM
same,FRAP [Fe2+eq],[1],0.084 ± 0.004 Fe2+eq
same,FCR [GAE],[2],0.85 ± 0.03 GAE
same,IC50,[3],73.9 ± 5.8 µM
same,IC50,[4],23.5 ± 1 µM
same,Effect on viability in combination with colistin,[5],-
same,Effect on viability in combination with imipenem,[5],-
same,EC50,[6],13.2 ± 0.3 µM
same,SI (selectivity index),[6],6.1 ± 0.5
same,EC50,[7],12.2 ± 0.4 µM
same,SI (selectivity index),[7],1.9 ± 0.2
same,IC50,[8],80.5 ± 4.8 µM
same,IC50,[9],710 µM
same,ABTS [CEAC],[10],0.30 ± 0.04 CEAC
"COc1cc([C@@H]2Oc3cc([C@H]4Oc5cc(O)c(Br)c(O)c5C(=O)[C@@H]4O)ccc3O[C@H]2CO)ccc1O [compound 13, 6-Bromosilybin B]",IC50,DPPH radical scavenging,354 µM
same,FRAP [Fe2+eq],[1],0.063 ± 0.001 Fe2+eq
same,FCR [GAE],[2],1.17 ± 0.04 GAE
same,IC50,[3],37 ± 2.4 µM
same,IC50,[4],16.1 ± 0.1 µM
same,Effect on viability in combination with colistin,[5],-
same,Effect on viability in combination with imipenem,[5],-
same,EC50,[6],26.1 ± 1.3 µM
same,SI (selectivity index),[6],2.0 ± 0.1
same,EC50,[7],14.5 ± 0.5 µM
same,SI (selectivity index),[7],1.11 ± 0.04
same,IC50,[8],52.7 ± 0.6 µM
same,IC50,[9],728 µM
same,ABTS [CEAC],[10],0.75 ± 0.02 CEAC
"COc1cc([C@@H]2Oc3cc([C@H]4Oc5c(Br)c(O)c(Br)c(O)c5C(=O)[C@@H]4O)ccc3O[C@H]2CO)ccc1O [compound 14, 6,8-dibromosilybin B]",IC50,DPPH radical scavenging,256 µM
same,FRAP [Fe2+eq],[1],0.081 ± 0.004 Fe2+eq
same,FCR [GAE],[2],1.10 ± 0.05 GAE
same,IC50,[3],90.4 ± 4.6 µM
same,IC50,[4],16.6 ± 0.8 µM
same,Effect on viability in combination with colistin,[5],-
same,Effect on viability in combination with imipenem,[5],-
same,EC50,[6],19.3 ± 0.5 µM
same,SI (selectivity index),[6],3.1 ± 0.3
same,EC50,[7],14.7 ± 0.7 µM
same,SI (selectivity index),[7],1.1 ± 0.1
same,IC50,[8],60.2 ± 3.4 µM
same,IC50,[9],378 µM
same,ABTS [CEAC],[10],0.35 ± 0.04 CEAC
"COc1cc(C2Oc3cc(-c4oc5c(Br)c(O)cc(O)c5c(=O)c4O)ccc3OC2CO)ccc1O (stereo not shown) [compound 16, 8-bromo-2,3-dehydrosilybin AB]",IC50,DPPH radical scavenging,13.4 µM
same,FRAP [Fe2+eq],[1],0.19 ± 0.01 Fe2+eq
same,FCR [GAE],[2],1.56 ± 0.03 GAE
same,IC50,[3],> 25 µM
same,IC50,[4],> 200 µM
same,Effect on viability in combination with colistin,[5],reversion of resistance
same,Colistin-resistant phenotype of P. aeruginosa (result in words),[5]; colistin breakpoint concentration,reversed the colistin-resistant phenotype in P. aeruginosa to a sensitive one
same,Effect on viability in combination with imipenem,[5],-
same,EC50,[6],6.9 ± 0.3 µM
same,SI (selectivity index),[6],12.7 ± 1.0
same,EC50,[7],> 200 µM
same,IC50,[8],87 ± 2.5 µM
same,IC50,[9],49.2 ± 1.9 µM
same,ABTS [CEAC],[10],1.15 ± 0.03 CEAC
"COc1cc([C@@H]2Oc3c(O)cc(-c4oc5c(Br)c(O)cc(O)c5c(=O)c4O)cc3[C@H]2CO)ccc1O [compound 18, 8-Bromo-2,3-dehydrosilychristin A]",IC50,DPPH radical scavenging,11.1 ± 0.6 µM
same,FRAP [Fe2+eq],[1],0.90 Fe2+eq
same,FCR [GAE],[2],2.22 GAE
same,IC50,[3],32.6 ± 1.8 µM
same,IC50,[4],80.1 ± 1.7 µM
same,Effect on viability in combination with colistin,[5],-
same,Effect on viability in combination with imipenem,[5],-
same,EC50,[6],10.5 ± 0.2 µM
same,SI (selectivity index),[6],2.2 ± 0.1
same,EC50,[7],29.4 ± 0.7 µM
same,SI (selectivity index),[7],2.7 ± 0.1
same,IC50,[8],23 ± 0.2 µM
same,IC50,[9],60.1 ± 2.7 µM
same,ABTS [CEAC],[10],1.41 CEAC
"COc1cc([C@H]2Oc3cc([C@H]4Oc5c(Br)c(O)c(Br)c(O)c5C(=O)[C@@H]4O)ccc3O[C@@H]2CO)cc(Br)c1O [compound 21, 6,8,21-tribromosilybin A]",IC50,DPPH radical scavenging,375 µM
same,FRAP [Fe2+eq],[1],0.079 ± 0.002 Fe2+eq
same,FCR [GAE],[2],0.99 ± 0.02 GAE
same,IC50,[3],70.4 ± 1.7 µM
same,IC50,[4],> 200 µM
same,Effect on viability in combination with colistin,[5],-
same,Effect on viability in combination with imipenem,[5],-
same,EC50,[6],30.7 ± 1.6 µM
same,SI (selectivity index),[6],≥6.5 ± 0.3
same,EC50,[7],> 200 µM
same,IC50,[8],> 200 µM
same,IC50,[9],213 µM
same,ABTS [CEAC],[10],0.12 ± 0.02 CEAC
"COc1cc([C@@H]2Oc3cc([C@H]4Oc5c(Br)c(O)c(Br)c(O)c5C(=O)[C@@H]4O)ccc3O[C@H]2CO)cc(Br)c1O [compound 22, 6,8,21-tribromosilybin B]",IC50,DPPH radical scavenging,238 µM
same,FRAP [Fe2+eq],[1],0.062 ± 0.002 Fe2+eq
same,FCR [GAE],[2],1.01 ± 0.04 GAE
same,IC50,[3],> 100 µM
same,IC50,[4],7.3 ± 0.1 µM
same,Effect on viability in combination with colistin,[5],-
same,Effect on viability in combination with imipenem,[5],-
same,EC50,[6],12 ± 0.5 µM
same,SI (selectivity index),[6],2.9 ± 0.3
same,EC50,[7],4.3 ± 0.3 µM
same,SI (selectivity index),[7],1.7 ± 0.1
same,IC50,[8],34.4 ± 1.8 µM
same,IC50,[9],255 µM
same,ABTS [CEAC],[10],0.17 ± 0.01 CEAC
